Measurements as given in patent publication US20080170990A1, “Methods for Myocardial Imaging in Patients Having a History of Pulmonary Disease” (CV THERAPEUTICS, INC., priority 2006, published 2008).

Assays:
[1] = system: AMP-sensitive subjects with mild or moderate asthma; assay: Double-blind placebo-controlled cross-over study of pulmonary function in AMP-sensitive asthma (Examples 9, 11); type: in vivo, human
Method: The primary objective was to compare the incidence of bronchoconstrictive reactions, defined as reduction from baseline in FEV1 of >15% within 2 hours following an intravenous (iv) bolus of 400 micrograms of Regadenoson or matching placebo.
Men or women ≧18 years of age with a diagnosis of mild or moderate asthma as documented by clinical history and pulmonary function test were considered for inclusion. The target was to enrolled 48 evaluable subjects: 24 mild and 24 moderate asthma subjects. […] Patients were not permitted short-acting bronchodilators for >6 hours and long-acting bronchodilators and methylxanthines for >24 hours prior to AMP, Regadenoson, or placebo.
AMP (adenosine 5′-monophosphate sodium salt) was used as an indirect bronchoconstrictor stimulus to select a group of susceptible subjects with adenosine-mediated bronchial hyperreactivity. A standard clinical protocol utilized by the investigative site for the inhalation of AMP for the purpose of provoking a bronchoconstrictor response in the airways was adopted for screening of all subjects. On arrival in the unit, subjects were required to rest for 15 minutes before assessment of lung function at baseline, measured as the best of 3 technically acceptable recordings of FEV1 taken at 1-minute intervals. Subject inhaled a series of five breaths of saline as control, followed by a breath of each increasing concentration of AMP at 3-minute intervals. Two measurements of FEV1 were to be made 90 and 150 seconds after each saline inhalation. The highest FEV1 value was to be recorded. Unless a fall in FEV1 of >10% from the baseline value was observed, subjects then inhaled increasing doubling concentrations of AMP (starting at 0.39 mg/mL) until a ≧20% decrease of FEV1 from the post-saline value was recorded. FEV1 was to be recorded at 90 and 150 seconds after each concentration was administered.
Subjects received 400 μg Regadenoson or placebo administered as an intravenous (iv) bolus in a double-blind cross-over design. Repeated measurements of FEV1 as an assessment of bronchoconstriction were performed before and for up to 2 hours after study drug administration.
Two similar randomized, double-blind, placebo (PLC)-controlled crossover trials were conducted, one in asthmatics with a positive adenosine monophosphate (AMP) challenge (a validated marker of airway inflammation) and one in patients with moderate or several chronic obstructive pulmonary disease (COPD). In both studies, short-acting bronchodilators were held prior to and for the 120 minute time frame study drug treatment during which spirometry was repeatedly assessed.

anesthetized dog = assay: Blood flow velocity in various vascular beds, intravascular Doppler (Example 4); type: in vivo; details: 1.0 μg/kg intravenous bolus
Description: The effects of Regadenoson were quantified as the average peak blood flow velocity (APV) using intravascular Doppler transducer tipped catheter. Heart rate (HR) and systemic arterial blood pressure (BP) were also monitored.

[2] = system: healthy, non-smoking male subjects; assay: Phase 1 ascending dose study, safety and maximum tolerated dose (Example 3); type: in vivo, human
Method: The study was performed using thirty-six healthy, non-smoking male subjects between the ages of 18 and 59 and within 15% of ideal body weight.
The study was performed in phase 1, single center, double-blind, randomized, placebo-controlled, crossover, ascending dose study. Randomization was to Regadenoson or placebo, in both supine and standing positions.
Regadenoson was administered as an IV bolus (20 seconds) in ascending doses of […], 10, 20 and 30 μg/kg.
Subjects received either Regadenoson of placebo on Day 1 supine, then crossover treatment on Day 2 supine. On Day 3, subjects received Regadenoson or placebo standing, then crossover treatment on Day 4 standing.
Patient safety was monitored by ECG, laboratory assessments, and collection of vital signs and adverse events.

awake dogs = assay: Blood flow in coronary, mesenteric, hind limb and renal vascular beds (Example 8); type: in vivo, dog
Description: In this study the vasodilator effects of Regadenoson were compared to those of ADO in different vascular beds in awake dogs. Dogs were chronically instrumented for measurements of the blood flow in coronary (CBF), mesenteric (MBF), hind limb (LBF), and renal (RBF) vascular beds, and hemodynamics.

[3] = system: subjects undergoing pharmacologic stress MPI; assay: Adverse effects and hemodynamics in pharmacologic stress myocardial perfusion imaging protocol (Example 7); type: in vivo, human
Description: 36 subjects (27 men, 9 women; 67±10 years) were studied with two doses of Regadenoson [400 mcg (n=18), 500 mcg (n=18)], administered as an IV bolus, as part of a pharmacologic stress myocardial perfusion imaging protocol.

[4] = 30 μg/kg supine, 4 subjects per group
[5] = 400 or 500 mcg IV bolus, 36 subjects

## CNC(=O)c1cnn(-c2nc(N)c3ncn([C@@H]4O[C@H](CO)[C@@H](O)[C@H]4O)c3n2)c1 [Regadenoson, (1-{9-[(4S,2R,3R,5R)-3,4-dihydroxy-5-(hydroxymethyl)oxolan-2-yl]-6-aminopurin-2-yl}pyrazol-4-yl)-N-methylcarboxamide]
[1]; 400 μg iv bolus
  incidence of chest discomfort: 21%
  incidence of dizziness: 53%
  incidence of dyspnea: 34%
  incidence of flushing: 32%
  incidence of headache: 45%
  incidence of nausea: 19%
  incidence of paraesthesia: 19%
  incidence of tachycardia: 66%
  time for HR to return to within 5 bpm of baseline: ≤ 60 min
[1]; 400 μg iv bolus, compared with placebo
  maximum increase in HR: +10.4 bpm
[1]; 400 μg iv bolus, placebo 8%
  incidence of adverse events: 98%
[1]; asthma study
  incidence of dyspnea following REG: 34%
[1]; asthma study N=48
  Number of patients with FEV1 decline by >20% over 120 min: 1 REG, 0 PLC
  Number of patients with FEV1 decline by >30% over 120 min: 1 REG, 0 PLC
  Number of patients with use of acute oxygen or short-acting bronchodilators: 0 REG, 0 PLC
[1]; asthma study N=48, p = 0.17 vs PLC
  mean FEV1, all post-bolus time points combined: 3.33 (0.9)L REG
[1]; asthma study N=48, p = 0.99
  Number of patients with FEV1 decline by >15% over 120 min: 2 REG, 2 PLC
[1]; mild asthma (n=24), 400 μg iv bolus
  subjects with bronchoconstriction (FEV1 reduction >15% within 2 hours): None
[1]; moderate asthma (n=24), 400 μg iv bolus
  number of subjects having bronchoconstriction (FEV1 reduction >15% within 2 hours): 2
Anesthetized dog
  time for effect on blood flow velocity to dissipate: less than ten minutes
[2]; [4]
  number of subjects with severe AE: Palpitation: 2
  number of subjects with severe AE: Syncope: 0
[2]; healthy volunteers, single IV bolus
  tolerability: well-tolerated
[2]; standing
  mean tolerable dose: 0.01 mg/kg
[2]; supine
  mean tolerable dose: 0.02 mg/kg
Awake dogs; awake dogs
  potency relative to adenosine in increasing coronary blood flow velocity (CBFv): > 100 fold
Awake dogs; mean ±SE, n=6, FIG. 18
  increase in hind limb blood flow (LBF): smaller increase in LBF than ADO
[3]; 400-mcg group
  incidence of dizziness: 11%
  incidence of dyspnea: 17%
  incidence of flushing: 17%
[3]; 400 mcg dose
  mean change in HR response: 34.8%
[3]; [5]
  patients with adverse effects (AE): 72%
  patients with adverse effects (AE), number: 26 pts
[3]; 500-mcg group
  incidence of dizziness: 28%
  incidence of dyspnea: 44%
  incidence of flushing: 44%
[3]; 500 mcg dose
  mean change in HR response: 44.2%
[3]; both doses
  incidence of abdominal pain: 11%
  incidence of chest discomfort: 33%
  incidence of headache: 25%
[3]; either dose
  lowest systolic BP (did not fall below): ≥ 90 mmHg
[3]; exacerbation of a migraine headache, required hospitalization
  serious AE: One serious AE occurred
[3]; in vivo
  AEs resolved within 15 min without treatment: 91%
  AEs that were mild to moderate: 96%
  AV block and arrhythmias: No 2nd or 3rd degree AV block was noted and there were no serious arrhythmias
  patients developing ST abnormalities: 7 pts
  patients developing T wave abnormalities: 5 pts
  time of peak hemodynamic effect, diastolic BP: 8 min
  time of peak hemodynamic effect, heart rate: ≤ 2 min
  time of peak hemodynamic effect, systolic BP: 4 min
[3]; mean ±S.D., 400 and 500 mcg
  Diastolic BP, Absolute Change (peak): −5.4 ± 7.2 mmHg
  Diastolic BP, Relative Change (peak): −7.9% ± 10.5%
  Heart Rate, Absolute Change (peak): +21.9 ± 10.4 beats per min
  Heart Rate, Relative Change (peak): +36.7% + 21.0%
  Systolic BP, Absolute Change (peak): −5.9 ± 10.7 mmHg
  Systolic BP, Relative Change (peak): −4.1% ± 7.6%
[3]; thirty min after Regadenoson
  BP deviation from baseline: < 2%
  HR above baseline: 8.6%
